The target of the experiment is T1, PHD2 (Homo sapiens, UniProt Q9GZT9).
T1 construct: Full length human PHD2 (fused to a MYC/DDK tag at C-terminal); purchased Origene Technology, USA
Kind of experiment: MALDI-based inhibition assay for PHD2. Format: biochemical. The note with it: 19-mer peptide substrate. How it is done:
IC50s were then calculated from the variation in percentage demethylation at different inhibitor concentrations, using nonlinear regression, with normalized dose-response fit on […]
MALDI-based inhibition assays for FTO and ALKBH5
The assay was modified from previously reported method.[5] An 8-mer m6A-ssDNA substrate with the sequence 5’-TCA(m6A)CAGC-3’ (Yale University, W.M. Keck Foundation Biotechnology Resource Laboratory) was used in this inhibition assay. The assay was performed in triplicate for each inhibitor, in a final reaction volume of 25 µL. Reaction consisted of FTO (2 µM) or ALKBH5 (4 µM), 2OG (150 µM), (NH4)2Fe(SO4)2·6H2O (150 µM), L-ascorbate (2 mM), m6A-ssDNA substrate (100 µM), in 50 mM HEPES buffer, pH 7.5, and inhibitor at various concentrations (final DMSO concentration not more than 1% v/v of assay mix). The reaction was incubated at room temperature for 30 min, before 1:1 quenching with 20% v/v formic acid. 1 uL of the diluted assay mixture was then mixed with 1 uL of 3-hydroxpicolinic acid (3-HPA, the MALDI-TOF-MS matrix, Sigma-Aldrich) and spotted onto the MALDI-TOF-MS plate before analysis. The 3-HPA matrix was prepared by mixing 9 parts of 50 mg/mL 3-hydroxpicolinic acid in 50% MeCN/Milli-Q H2O with 1 part of 50 mg/mL ammonium citrate in Milli-Q H2O. […]

pIC50: −log10 of the molar value.

For one molecule, IC50 results are on record in paper PMC5424463, “A strategy based on nucleotide specificity leads to a subfamily-selective and cell-active inhibitor of N ^6-methyladenosine demethylase FTO” (Chemical Science, 2014).

For orientation: pIC50 means the IC50 on a negative log10 scale, so that one unit is a factor of ten. Low readings indicate a large IC50, high ones a small IC50.

T1 sequence (Q9GZT9 whole entry, the tested form may be a part): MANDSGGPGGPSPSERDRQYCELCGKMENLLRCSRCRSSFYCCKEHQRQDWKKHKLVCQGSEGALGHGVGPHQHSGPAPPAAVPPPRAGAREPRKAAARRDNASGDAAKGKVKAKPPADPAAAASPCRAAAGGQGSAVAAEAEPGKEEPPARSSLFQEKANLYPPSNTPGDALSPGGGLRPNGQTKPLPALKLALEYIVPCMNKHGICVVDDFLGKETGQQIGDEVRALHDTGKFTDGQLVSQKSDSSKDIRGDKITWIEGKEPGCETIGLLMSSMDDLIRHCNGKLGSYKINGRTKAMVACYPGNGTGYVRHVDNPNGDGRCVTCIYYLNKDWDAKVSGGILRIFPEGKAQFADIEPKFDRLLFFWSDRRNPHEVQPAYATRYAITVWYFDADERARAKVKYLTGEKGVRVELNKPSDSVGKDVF

Molecule `O=C(O)/C=C/C(=O)NNC(=O)c1cnccc1Cc1ccccc1` [Compound 12] gave a pIC50 below 4.00.
